Data reported in US6423689B1, “Peptidyl calcium channel blockers” (Warner-Lambert Company, priority 1997, dated 2002).

Molecular target: T1, N-type Ca2+ channels in IMR-32 cells (Homo sapiens, UniProt Q00975)
T1 construct: host or cells: IMR-32 cells, differentiated with dibutyryl cAMP and bromodeoxyuridine
Experiment: Inhibition of N-type calcium flux in IMR-32 cells (Indo-1 fluorescence, nitrendipine present)
Format: cell-based
Details: for IC50: IMR-32 cells, 5 μM nitrendipine, K+ depolarization
Method in brief: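 With L-type flux blocked by 5 μM nitrendipine, N-type Ca2+ entry was read as the Indo-1 emission ratio (400/490 nm, excitation 350 nm) at 30° C after KCl depolarization.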

T1 sequence (Q00975 whole entry): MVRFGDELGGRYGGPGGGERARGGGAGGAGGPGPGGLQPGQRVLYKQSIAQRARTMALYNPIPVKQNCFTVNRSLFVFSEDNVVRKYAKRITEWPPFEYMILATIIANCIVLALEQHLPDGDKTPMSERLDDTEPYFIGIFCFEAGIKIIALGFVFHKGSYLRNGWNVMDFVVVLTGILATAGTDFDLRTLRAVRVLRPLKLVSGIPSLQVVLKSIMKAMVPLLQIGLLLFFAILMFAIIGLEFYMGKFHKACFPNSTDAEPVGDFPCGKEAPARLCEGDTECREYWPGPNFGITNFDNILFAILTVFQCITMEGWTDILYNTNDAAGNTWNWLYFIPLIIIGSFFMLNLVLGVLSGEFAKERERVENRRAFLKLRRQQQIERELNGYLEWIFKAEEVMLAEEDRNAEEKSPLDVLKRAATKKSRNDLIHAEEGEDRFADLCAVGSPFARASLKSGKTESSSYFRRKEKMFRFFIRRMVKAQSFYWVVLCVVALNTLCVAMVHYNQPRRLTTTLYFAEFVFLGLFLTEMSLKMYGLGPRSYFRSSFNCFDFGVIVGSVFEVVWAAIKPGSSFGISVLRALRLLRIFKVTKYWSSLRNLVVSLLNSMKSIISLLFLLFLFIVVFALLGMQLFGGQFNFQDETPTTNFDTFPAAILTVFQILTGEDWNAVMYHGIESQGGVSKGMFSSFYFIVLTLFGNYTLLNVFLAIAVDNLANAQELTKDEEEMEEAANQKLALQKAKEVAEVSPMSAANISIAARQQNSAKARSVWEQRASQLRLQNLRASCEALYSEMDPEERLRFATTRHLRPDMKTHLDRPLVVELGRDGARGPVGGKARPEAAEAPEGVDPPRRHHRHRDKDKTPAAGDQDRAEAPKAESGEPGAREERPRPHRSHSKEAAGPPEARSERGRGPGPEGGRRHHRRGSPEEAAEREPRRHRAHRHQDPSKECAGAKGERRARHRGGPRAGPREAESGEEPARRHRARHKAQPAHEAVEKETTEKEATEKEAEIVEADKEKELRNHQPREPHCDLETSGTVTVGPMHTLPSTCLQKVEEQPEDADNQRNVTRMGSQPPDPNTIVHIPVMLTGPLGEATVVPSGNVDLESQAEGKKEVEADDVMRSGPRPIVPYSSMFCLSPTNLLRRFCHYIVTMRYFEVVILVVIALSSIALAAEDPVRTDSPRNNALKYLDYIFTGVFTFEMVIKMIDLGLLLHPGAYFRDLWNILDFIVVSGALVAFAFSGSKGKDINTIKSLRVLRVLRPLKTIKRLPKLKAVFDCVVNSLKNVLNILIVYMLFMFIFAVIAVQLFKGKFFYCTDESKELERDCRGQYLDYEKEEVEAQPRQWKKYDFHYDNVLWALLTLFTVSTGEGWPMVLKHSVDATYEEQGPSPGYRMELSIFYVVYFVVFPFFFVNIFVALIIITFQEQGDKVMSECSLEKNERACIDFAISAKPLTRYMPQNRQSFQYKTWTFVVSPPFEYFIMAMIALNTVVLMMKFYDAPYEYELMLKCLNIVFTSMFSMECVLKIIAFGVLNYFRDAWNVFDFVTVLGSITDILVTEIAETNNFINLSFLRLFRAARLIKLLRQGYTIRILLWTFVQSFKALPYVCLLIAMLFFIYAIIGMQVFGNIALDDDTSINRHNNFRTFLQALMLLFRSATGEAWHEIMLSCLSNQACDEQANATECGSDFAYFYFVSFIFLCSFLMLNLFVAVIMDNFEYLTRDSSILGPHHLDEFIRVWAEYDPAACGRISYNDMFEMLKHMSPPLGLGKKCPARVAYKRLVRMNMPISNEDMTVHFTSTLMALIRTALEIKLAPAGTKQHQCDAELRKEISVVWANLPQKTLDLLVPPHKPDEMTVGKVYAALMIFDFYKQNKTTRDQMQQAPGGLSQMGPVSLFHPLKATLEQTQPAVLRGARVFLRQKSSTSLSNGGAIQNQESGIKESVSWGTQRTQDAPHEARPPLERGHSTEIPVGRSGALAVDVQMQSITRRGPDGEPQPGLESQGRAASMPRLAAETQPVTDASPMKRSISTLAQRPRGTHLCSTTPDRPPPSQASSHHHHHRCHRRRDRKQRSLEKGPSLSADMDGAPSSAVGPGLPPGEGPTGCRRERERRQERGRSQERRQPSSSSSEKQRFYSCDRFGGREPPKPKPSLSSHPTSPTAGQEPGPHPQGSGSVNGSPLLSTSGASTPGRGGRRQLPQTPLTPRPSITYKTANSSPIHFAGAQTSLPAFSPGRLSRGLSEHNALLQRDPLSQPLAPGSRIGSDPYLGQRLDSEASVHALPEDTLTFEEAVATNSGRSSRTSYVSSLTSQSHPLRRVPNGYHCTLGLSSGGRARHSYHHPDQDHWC
T1 sequence (P54289 25-956 partner limits assumed): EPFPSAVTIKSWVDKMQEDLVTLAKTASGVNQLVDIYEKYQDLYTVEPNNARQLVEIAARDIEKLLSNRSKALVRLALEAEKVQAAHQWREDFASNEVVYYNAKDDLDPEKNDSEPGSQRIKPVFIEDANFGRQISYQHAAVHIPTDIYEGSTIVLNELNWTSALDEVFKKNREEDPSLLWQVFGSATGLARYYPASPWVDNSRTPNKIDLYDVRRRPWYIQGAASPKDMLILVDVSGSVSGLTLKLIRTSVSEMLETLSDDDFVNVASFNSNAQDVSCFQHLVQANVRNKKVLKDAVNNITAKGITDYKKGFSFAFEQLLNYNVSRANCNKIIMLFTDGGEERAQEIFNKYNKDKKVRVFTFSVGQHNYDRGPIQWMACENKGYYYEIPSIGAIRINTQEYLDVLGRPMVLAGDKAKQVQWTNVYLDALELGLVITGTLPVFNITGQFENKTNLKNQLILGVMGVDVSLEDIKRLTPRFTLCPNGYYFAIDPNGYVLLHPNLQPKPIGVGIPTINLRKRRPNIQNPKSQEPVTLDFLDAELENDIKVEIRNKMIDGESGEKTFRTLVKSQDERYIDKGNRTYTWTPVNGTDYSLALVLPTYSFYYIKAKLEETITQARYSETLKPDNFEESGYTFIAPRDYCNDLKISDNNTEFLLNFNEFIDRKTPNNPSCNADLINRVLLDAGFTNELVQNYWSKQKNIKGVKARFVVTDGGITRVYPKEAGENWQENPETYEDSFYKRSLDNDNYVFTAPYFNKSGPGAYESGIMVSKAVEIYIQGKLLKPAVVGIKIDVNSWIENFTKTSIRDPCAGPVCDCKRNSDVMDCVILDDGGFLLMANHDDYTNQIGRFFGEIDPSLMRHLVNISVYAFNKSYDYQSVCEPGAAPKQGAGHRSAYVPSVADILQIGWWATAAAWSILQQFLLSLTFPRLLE
T1 sequence (P54289 957-1103 partner limits assumed): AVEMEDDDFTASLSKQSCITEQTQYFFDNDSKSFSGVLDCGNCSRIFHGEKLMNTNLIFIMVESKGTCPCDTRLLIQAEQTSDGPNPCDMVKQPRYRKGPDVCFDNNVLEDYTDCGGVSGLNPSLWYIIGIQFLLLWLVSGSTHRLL
T1 sequence (P54284 whole entry partner): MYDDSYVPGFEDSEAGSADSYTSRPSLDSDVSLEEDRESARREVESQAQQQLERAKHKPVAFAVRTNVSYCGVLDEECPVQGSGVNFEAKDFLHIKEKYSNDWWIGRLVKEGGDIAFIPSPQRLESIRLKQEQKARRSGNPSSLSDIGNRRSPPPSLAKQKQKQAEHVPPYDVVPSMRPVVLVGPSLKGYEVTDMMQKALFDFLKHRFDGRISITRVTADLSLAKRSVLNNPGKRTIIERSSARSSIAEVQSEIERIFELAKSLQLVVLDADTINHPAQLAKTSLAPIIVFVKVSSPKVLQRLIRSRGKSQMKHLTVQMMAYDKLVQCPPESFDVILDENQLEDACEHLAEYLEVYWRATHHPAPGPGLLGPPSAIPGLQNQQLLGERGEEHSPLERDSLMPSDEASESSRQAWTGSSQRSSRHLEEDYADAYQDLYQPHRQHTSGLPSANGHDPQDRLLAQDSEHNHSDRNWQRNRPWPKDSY

Compound | Inhibition of Calcium Flux in IMR-32 Cells % Inhibition at 1 μM [%] | Inhibition of Calcium Flux in IMR-32 Cells % Inhibition at 10 μM [%] | also measured
CC(C)C[C@H](NC(=O)N1CCCCCC1)C(=O)N[C@@H](Cc1ccc(OCc2cccc(N)c2)cc1)C(=O)OC(C)(C)C (relative stereo) [Example 29, [S-(R*,R*)]-3-[4-(3-Amino-benzyloxy)-phenyl]-2-{2-[(azepane-1-carbonyl)-amino]-4-methyl-pentanoylamino}-propionic acid tert-butyl ester] | 43 | 87 | 
COc1cc(C(=O)NC(CC(C)C)C(=O)N[C@@H](Cc2ccc(OCc3ccccc3)cc2)C(=O)OC(C)(C)C)cc(OC)c1OC (stereo in doubt) [Example 92, [S(R*,R*)]-3-(4-Benzyloxy-phenyl)-2-[4-methyl-2-(3,4,5-trimethoxy-benzoylamino)-pentanoylamino]-propionic acid tert-butyl ester] | 1 | 65 | 
CC(C)C[C@H](NC(=O)N[C@H](C)c1ccccc1)C(=O)N[C@@H](Cc1ccc(OCc2ccccc2)cc1)C(=O)OC(C)(C)C [Example 63, 3-(4-Benzyloxy-phenyl)-(S)-2-{4-methyl-(S)-2-[3-[(R)-1-phenyl-ethyl]-ureido]-pentanoylamino}-propionic acid tert-butyl ester] |  |  | inhibition at 1 µM (IMR-32): 33%
CC(=O)N[C@@H](CC(C)C)C(=O)N[C@@H](Cc1ccc(OCc2ccccc2)cc1)C(=O)OC(C)(C)C (relative stereo) [Example 116, [S-(R*,R*)]-2-(2-Acetylamino-4-methyl-pentanoylamino)-3-(4-benzyloxy-phenyl)-propionic acid tert-butyl ester] |  | 53 | 
CC(C)C[C@H](NC(=O)N1CCOCC1)C(=O)N[C@@H](Cc1ccc(OCc2ccccc2)cc1)C(=O)N1CCCCC1 (relative stereo) [Example 151, [S(R*,R*)]-Morpholine-4-carboxylic acid {1-[1-(4-benzyloxy-benzyl)-2oxo-2-piperidin-1-ylethylcarbamoyl]-3-methyl-butyl}amide] |  |  | IC50: 4.3 µM
CC(C)C[C@H](NC(=S)NC12CC3CC(CC(C3)C1)C2)C(=O)N[C@@H](Cc1ccc(OCc2ccccc2)cc1)C(=O)OC(C)(C)C (relative stereo) [Example 46, [S-(R*,R*)]-3-(4-Benzyloxy-phenyl)-2-{2-[3-(1-adamantyl)-thioureido]-4-methylpentanoylamino}-propionic acid, tert-butyl ester] | 29 | 49 | 
Cc1nn(-c2ccccc2)nc1C(=O)N[C@@H](CC(C)C)C(=O)N[C@@H](Cc1ccc(OCc2ccccc2)cc1)C(=O)OC(C)(C)C (relative stereo) [Example 121, [S-(R*,R*)]-3-(4-Benzyloxy-phenyl)-2-{4-methyl-2-[(5-methyl-2-phenyl-2H-[1,2,3]triazole-4-carbonyl)-amino]-pentanoylamino}-propionic acid tert-butyl ester] |  | 25 | 
CC(C)C[C@H](NC(=O)N1CCCCCC1)C(=O)N[C@@H](Cc1ccc(OCc2ccccc2)cc1)C(=O)NCCc1c[nH]c2ccccc12 (relative stereo) [Example 224, [S-(R*,R*)]-Azepane-1-carboxylic acid (1-{2-(4-benzyloxy-phenyl)-1-[2-(1H-indol-3-yl)-ethylcarbamoyl]-ethylcarbamoyl}-3-methyl-butyl)-amide] | 50 | 87 | 
CC(C)C[C@H](NC(=O)N1CCCCCC1)C(=O)N[C@@H](Cc1ccc(C#Cc2ccccc2)cc1)C(=O)NC(C)(C)C (relative stereo) [Example 134, [S(R*,R*)]-Azepane-1-carboxylic acid {1-[1-tert-butylcarbamoyl-2-(4-phenylethynyl-phenyl)-ethylcarbamoyl]-3-methyl-butyl}-amide] | 29 | 56 | 
COc1cc(NC(=O)[C@H](Cc2ccc(OCc3ccccc3)cc2)NC(=O)[C@H](CC(C)C)NC(=O)N2CCCCCC2)cc(OC)c1OC (relative stereo) [Example 223, [S-(R*,R*)]-Azepane-1-carboxylic acid {-1-[2-(4-benzyloxy-phenyl)-1-(3,4,5-trimethoxy-phenylcarbamoyl)-ethylcarbamoyl]-3-methyl-butyl}-amide] | 36 | 74 | 
COc1cccc(NC(=O)N[C@@H](CC(C)C)C(=O)N[C@@H](Cc2ccc(OCc3ccccc3)cc2)C(=O)OC(C)(C)C)c1 (relative stereo) [Example 57, [S-(R*,R*)]-3-(4-Benzyloxy-phenyl)-2-{2-[3-(3-methoxy-phenyl)-ureido]-4-methyl-pentanoylamino}-propionic acid tert-butyl ester] | 34 | 74 | 
CC(C)C[C@H](NC(=O)N1CCCCCC1)C(=O)N[C@@H](Cc1ccc(OCc2ccccc2)cc1)C(=O)Nc1ccc(N2CCCCC2)cc1 (relative stereo) [Example 260, [S-(R*,R*)]-Azepane-1-carboxylic acid {1-[2-(4-benzyloxy-phenyl)-1-(4-piperidin-1-yl-phenylcarbamoyl)-ethylcarbamoyl]-3-methyl-butyl}-amide] |  | 33 | 
CC(C)C[C@H](NC(=O)N1CCCCCC1)C(=O)N[C@@H](Cc1ccc(OCc2ccccc2)cc1)C(=O)NCc1ccc2c(c1)OCO2 (relative stereo) [Example 222, [S-(R*,R*)]-Azepane-1-carboxylic acid {1-[1-[(benzo[1,3]dioxol-5-ylmethyl)-carbamoyl]-2-(4-benzyloxy-phenyl)-ethylcarbamoyl]-3-methyl-butyl}-amide] | 36 | 84 | 
CC(C)CC(NC(=O)N1CCCCCC1)C(=O)NC(Cc1ccc(OCc2ccccc2)cc1)C(=O)N1CCCC(CO)C1 (stereo not drawn) [Example 256, Azepane-1-carboxylic acid {1-[1-(4-benzyloxy-benzyl)-2-(3-hydroxymethyl-piperidin-1-yl)-2-oxo-ethylcarbamoyl]-3-methyl-butyl}-amide] |  |  | IC50: 1.5 µM
CC(C)C[C@H](NC(=O)Nc1ccc(Cl)cc1)C(=O)N[C@@H](Cc1ccc(OCc2ccccc2)cc1)C(=O)OC(C)(C)C (relative stereo) [Example 80, [S-(R*,R*)]-3-(4-Benzyloxy-phenyl)-2-{2-[3-(4-chloro-phenyl)-ureido]-4-methyl-pentanoylamino}-propionic acid tert-butyl ester] | 40 |  | 
CC(C)C[C@H](NC(=O)Nc1ccc(Cl)c(Cl)c1)C(=O)N[C@@H](Cc1ccc(OCc2ccccc2)cc1)C(=O)OC(C)(C)C (relative stereo) [Example 85, [S-(R*,R*)]-3-(4-Benzyloxy-phenyl)-2-{2-[3-(3,4-dichloro-phenyl)-ureido]-4-methyl-pentanoylamino}-propionic acid tert-butyl ester] | 30 |  | 
COc1ccc(C(=O)N[C@@H](CC(C)C)C(=O)N[C@@H](Cc2ccc(OCc3ccccc3)cc2)C(=O)OC(C)(C)C)cc1OC (relative stereo) [Example 100, [S-(R*,R*)]-3-(4-Benzyloxy-phenyl)-2-[2-(3,4-dimethoxy-benzoylamino)-4-methyl-pentanoylamino]-propionic acid tert-butyl ester] | 18 |  | 
Cc1cccc(C)c1NC(=O)N[C@@H](CC(C)C)C(=O)N[C@@H](Cc1ccc(OCc2ccccc2)cc1)C(=O)OC(C)(C)C (relative stereo) [Example 62, [S-(R*,R*)]-3-(4-Benzyloxy-phenyl)-2-{2-[3-(2,6-dimethyl-phenyl)-ureido]-4-methyl-pentanoylamino}-propionic acid tert-butyl ester] | 29 |  | 
CC(C)C[C@H](NC(=O)C(C)C)C(=O)N[C@@H](Cc1ccc(OCc2ccccc2)cc1)C(=O)OC(C)(C)C (relative stereo) [Example 115, [S-(R*,R*)]-3-(4-Benzyloxy-phenyl)-2-(2-isobutyrylamino-4-methyl-pentanoylamino)-propionic acid tert-butyl ester] |  | 71 | 
CSCC[C@H](NC(=O)N1CCCCCC1)C(=O)N[C@@H](Cc1ccc(OCc2ccccc2)cc1)C(=O)NCCN1CCCCC1 [Example 154, [S-(R*,R*)]-Azepane-1-carboxylic acid {1-[2-(4-benzyloxy-phenyl)-1-(2-piperidin-1-ylethylcarbamoyl)-ethylcarbamoyl]-3-methylsulfanyl-propyl}-amide] |  |  | IC50: 9.6 µM
CC(C)C[C@H](NC(=O)Cc1cccnc1)C(=O)N[C@@H](Cc1ccc(OCc2ccccc2)cc1)C(=O)OC(C)(C)C (relative stereo) [Example 119, [S-(R*,R*)]-3-(4-Benzyloxy-phenyl)-2-[4-methyl-2-(2-pyridin-3-yl-acetylamino)pentanoylamino]-propionic acid tert-butyl ester] |  | 65 | 
CNC(=O)N[C@@H](CC(C)C)C(=O)N[C@@H](Cc1ccc(OCc2ccccc2)cc1)C(=O)OC(C)(C)C (relative stereo) [Example 88, [S-(R*,R*)]-3-(4-Benzyloxy-phenyl)-2-[4-methyl-2-(3-methyl-ureido)-pentanoylamino]-propionic acid tert-butyl ester] | 30 |  | 
CC(C)C[C@H](NC(=O)N1CCCCCC1)C(=O)N[C@@H](Cc1ccc(OCc2ccccc2)cc1)C(=O)N1CCN(CCO)CC1 [Example 202, [S-(R*,R*)]-Azepane-1-carboxylic acid (1-{1-(4-benzyloxy-benzyl)-2-[4-(2-hydroxy-ethyl)-piperazin-1-yl]-2-oxo-ethylcarbamoyl}-3-methyl-butyl)-amide] |  |  | inhibition at 1 µM (IMR-32): 25%; inhibition at 10 µM (IMR-32): 79%; IC50: 2.8 µM
